Reference: patent US4826814A, “Tripeptide derivatives” (Dainippon Pharmaceutical Co., Ltd., priority 1986, dated 1989)
Starred links: 1 amine or outer side, 2 acyl side, 3 side chain; linkers in the order of their positions; H or OH if unused. Non-standard residues stand in square brackets, D forms with d. Residues, ends and D or L forms follow the SMILES beside them. *: point of attachment. d(γGlu) = O=C(O)[C@@H](CCC(=O)[*:2])N[*:1]; Oic = O=C(O)[C@@H]1C[C@@H]2CCCC[C@@H]2N1; Nicotinoyl = O=C(c1cccnc1)*; Cbz = O=C(OCc1ccccc1)*

Tests used:
renal hypertensive rats = assay: Antihypertensive activity after single oral administration in two-kidney Goldblatt type renal hypertensive rats (tail-cuff blood pressure); format: in vivo, rat; conditions: for antihypertensive action after oral administration: in vivo test with rats; for Charge in pressure at 9 hours administration: blood pressure, renal hypertensive rats, single oral administration
Text: Male Sprague Dawley rats (5 weeks old) were subjected to constriction of the left renal artery with a silver clip (internal diameter: 0.22 mm) under light ether anesthesia. The right kidney and renal artery were left intact. About 6-10 weeks after clipping, rats showing a blood pressure above 180 mmHg were used. These treated rats are named two-kidney Goldblatt type renal hypertensive rats and considered as a typical model of reninangiotensin dependent hypertension.
The blood pressure was measured by a tail-cuff method using a programmed electro-sphygmomanometer (PE-300, Narco Biosystem, U. S. A.) after warming at 38° C. for 10 minutes in heating box.
The antihypertensive activity of test compounds was evaluated after single oral administration in renal hypertensive rats (3-5 rats/group).

[1] = molecular target: T1, ACE preparation (rabbit lung) (Oryctolagus cuniculus, UniProt P12822); assay: In vitro ACE inhibitory activity (hippuryl-L-histidyl-L-leucine substrate); format: biochemical; conditions: 37° C., 30 minutes, pH 8.3
T1 construct: an ACE preparation (rabbit lung); from tissue; host or cells: rabbit lung
T1 sequence (P12822 34-1310): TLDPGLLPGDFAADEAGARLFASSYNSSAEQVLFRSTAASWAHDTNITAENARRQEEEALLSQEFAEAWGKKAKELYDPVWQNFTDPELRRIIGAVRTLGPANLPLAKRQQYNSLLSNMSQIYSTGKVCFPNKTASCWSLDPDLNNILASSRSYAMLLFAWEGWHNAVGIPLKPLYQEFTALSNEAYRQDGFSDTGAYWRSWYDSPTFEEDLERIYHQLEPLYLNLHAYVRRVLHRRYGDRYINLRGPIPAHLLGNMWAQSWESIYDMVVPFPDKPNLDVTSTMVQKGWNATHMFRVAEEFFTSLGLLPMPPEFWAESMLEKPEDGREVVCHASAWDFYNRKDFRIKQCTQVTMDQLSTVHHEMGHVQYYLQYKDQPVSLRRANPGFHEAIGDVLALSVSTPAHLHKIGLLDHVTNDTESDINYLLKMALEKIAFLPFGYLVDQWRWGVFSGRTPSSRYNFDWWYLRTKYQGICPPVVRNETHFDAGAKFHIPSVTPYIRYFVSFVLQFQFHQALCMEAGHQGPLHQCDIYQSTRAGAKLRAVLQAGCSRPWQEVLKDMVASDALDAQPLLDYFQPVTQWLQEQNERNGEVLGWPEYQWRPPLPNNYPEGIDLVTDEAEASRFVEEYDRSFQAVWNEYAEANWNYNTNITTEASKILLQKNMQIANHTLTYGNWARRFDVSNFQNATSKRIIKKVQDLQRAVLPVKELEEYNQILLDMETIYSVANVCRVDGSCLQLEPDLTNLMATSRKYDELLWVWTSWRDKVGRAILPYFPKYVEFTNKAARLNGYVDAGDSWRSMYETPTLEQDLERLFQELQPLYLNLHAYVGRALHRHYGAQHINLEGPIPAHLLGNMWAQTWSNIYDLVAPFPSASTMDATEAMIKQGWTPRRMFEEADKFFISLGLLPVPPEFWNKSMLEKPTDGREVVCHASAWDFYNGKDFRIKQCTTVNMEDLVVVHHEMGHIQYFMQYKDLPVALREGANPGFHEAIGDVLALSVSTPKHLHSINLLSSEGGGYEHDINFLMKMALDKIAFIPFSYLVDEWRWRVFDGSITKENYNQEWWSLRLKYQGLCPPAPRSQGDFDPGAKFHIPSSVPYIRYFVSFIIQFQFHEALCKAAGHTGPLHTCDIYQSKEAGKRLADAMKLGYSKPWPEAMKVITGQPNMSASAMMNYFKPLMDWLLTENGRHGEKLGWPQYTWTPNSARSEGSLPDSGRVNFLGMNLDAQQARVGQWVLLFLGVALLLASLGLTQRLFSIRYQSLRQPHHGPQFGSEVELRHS
Protocol: The assay medium contained an ACE preparation (rabbit lung), synthetic substrate (hippuryl-L-histidyl-L-leucine 5 mM), NaCl (300 mM) and phosphate buffer (100 mM, pH 8.3). It was mixed to a final volume of 0.300 ml and incubated at 37° C. for 30 minutes in the presence or absence of test compounds. After the reaction was terminated by adding 300 μl of 1N HCl, hippuric acid formed was extracted with 2 volume of ethyl acetate. After ethyl acetate was evaporated and distilled water was added, the hippuric acid was determined from its absorbance at 228 nm by spectrophotometer (Hitachi 100-41).
The degree of ACE inhibition was calculated from activities with and without test compounds. The IC50 value (molar concentration required for the 50% inhibition of ACE activity) was obtained from a dose-inhibition curve.

[2] = molecular target: angiotensin converting enzyme (ACE) (Homo sapiens, UniProt P12821); conditions: stated by the publication of Ksander et al.; cited from earlier work
angiotensin converting enzyme (ACE), sequence (P12821 30-1306, species assumed): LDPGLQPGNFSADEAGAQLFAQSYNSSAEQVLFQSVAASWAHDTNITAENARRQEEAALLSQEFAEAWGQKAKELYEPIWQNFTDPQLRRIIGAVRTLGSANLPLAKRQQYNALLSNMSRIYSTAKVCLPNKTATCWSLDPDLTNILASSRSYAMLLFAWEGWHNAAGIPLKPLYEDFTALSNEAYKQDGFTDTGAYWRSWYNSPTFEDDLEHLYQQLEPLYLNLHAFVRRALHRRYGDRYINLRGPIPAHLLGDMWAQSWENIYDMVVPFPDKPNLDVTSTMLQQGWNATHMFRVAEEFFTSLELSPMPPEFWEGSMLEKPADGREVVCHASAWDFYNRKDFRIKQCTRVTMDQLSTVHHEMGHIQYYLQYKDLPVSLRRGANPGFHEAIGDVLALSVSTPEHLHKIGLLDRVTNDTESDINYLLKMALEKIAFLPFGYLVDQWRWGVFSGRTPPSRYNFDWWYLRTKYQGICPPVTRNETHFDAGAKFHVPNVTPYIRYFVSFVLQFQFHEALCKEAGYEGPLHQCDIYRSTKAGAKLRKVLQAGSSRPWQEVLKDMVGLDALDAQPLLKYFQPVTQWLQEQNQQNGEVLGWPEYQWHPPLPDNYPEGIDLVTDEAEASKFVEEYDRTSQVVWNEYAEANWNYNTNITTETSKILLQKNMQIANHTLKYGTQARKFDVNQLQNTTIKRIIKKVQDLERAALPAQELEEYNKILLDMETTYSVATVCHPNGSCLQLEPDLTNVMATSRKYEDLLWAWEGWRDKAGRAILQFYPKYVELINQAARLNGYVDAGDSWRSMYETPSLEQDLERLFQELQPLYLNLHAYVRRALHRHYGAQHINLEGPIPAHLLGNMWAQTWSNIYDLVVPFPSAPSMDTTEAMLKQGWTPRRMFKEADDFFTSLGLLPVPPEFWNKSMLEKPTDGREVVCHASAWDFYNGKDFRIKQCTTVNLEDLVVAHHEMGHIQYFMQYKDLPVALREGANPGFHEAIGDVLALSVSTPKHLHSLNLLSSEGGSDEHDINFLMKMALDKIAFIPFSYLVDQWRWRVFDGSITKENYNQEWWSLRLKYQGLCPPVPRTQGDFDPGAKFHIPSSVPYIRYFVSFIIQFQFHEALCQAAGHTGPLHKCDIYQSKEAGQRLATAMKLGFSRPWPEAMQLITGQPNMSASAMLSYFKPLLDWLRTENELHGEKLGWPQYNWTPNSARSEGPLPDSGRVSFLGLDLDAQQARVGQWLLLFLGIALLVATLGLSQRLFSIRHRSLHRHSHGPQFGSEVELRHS

Male STD-ddy strain mice = assay: Toxicity: oral LD50 in mice; format: in vivo
Text: Male STD-ddy strain mice weighing about 22 to 25 g were used.

NCCCC[C@H](N)C(=O)N[C@H](CCC(=O)N1c2ccccc2C[C@H]1C(=O)O)C(=O)O [1-(L-lysyl-γ-D-glutamyl)indoline-2(S)carboxylic acid, reference compound]
antihypertensive action after oral administration (renal hypertensive rats): do not show any significant antihypertensive action
IC50 [1]: 18.8 nM
in vitro inhibition of ACE [2]: show in vitro inhibition of ACE

O=C(NCCCC[C@H](NC(=O)OCc1ccccc1)C(=O)N[C@H](CCC(=O)N1c2ccccc2C[C@H]1C(=O)O)C(=O)O)OCc1ccccc1 [1-(N^2,N^6dibenzyloxycarbonyl-L-lysyl-γ-D-glutamyl)indoline-2(S)carboxylic acid, reference compound]
Charge in pressure at 9 hours administration (renal hypertensive rats; dose of 30 mg/kg): -2
antihypertensive action after oral administration (renal hypertensive rats): do not show any significant antihypertensive action
in vitro inhibition of ACE [2]: show in vitro inhibition of ACE

NCCCC[C@H](NC(=O)OCc1ccccc1)C(=O)N[C@H](CCC(=O)N1[C@H](C(=O)O)C[C@@H]2CCCC[C@@H]21)C(=O)O [Example 11, (2S,3aS,7aS)-1-(N^2 -Benzyloxycarboxyl-L-lysyl-gamma-D-glutamyl)octahydro-1H-indole-2-carboxylic acid] (Cbz-Lys-[d(γGlu)]-[Oic]-OH)
Charge in pressure at 9 hours administration (renal hypertensive rats; dose of 10 mg/kg): -37

NCCCC[C@H](NC(=O)c1cccnc1)C(=O)N[C@H](CCC(=O)N1[C@H](C(=O)O)C[C@@H]2CCCC[C@@H]21)C(=O)O [Example 15, (2S,3aS,7aS)-1-(N^2 -Nicotinoyl-L-lysyl-gamma-D-glutamyl)octahydro-1H-indole-2-carboxylic acid] (Nicotinoyl-Lys-[d(γGlu)]-[Oic]-OH)
oral LD50 (Male STD-ddy strain mice): more than 3,000 mg per kilogram of body weight
IC50 [1]: 6.4 nM

NCCCC[C@H](NC(=O)C1CCC1)C(=O)N[C@H](CCC(=O)N1[C@H](C(=O)O)C[C@@H]2CCCC[C@@H]21)C(=O)O [Example 18, (2S,3aS,7aS)-1-(N^2 -Cyclobutanecarbonyl-L-lysl-gamma-D-glutamyl)octahydro-1H-indole-2-carboxylic acid]
Charge in pressure at 9 hours administration (renal hypertensive rats; dose of 10 mg/kg): -42

NCCCC[C@H](NC(=O)c1ccncc1)C(=O)N[C@H](CCC(=O)N1[C@H](C(=O)O)C[C@@H]2CCCC[C@@H]21)C(=O)O [Example 29, (2S,3aS,7aS)-1-(N^2 -Isonicotinoyl-L-lysyl-gamma-D-glutamyl)octoahydro-1H-indole-2-carboxylic acid]
Charge in pressure at 9 hours administration (renal hypertensive rats; dose of 10 mg/kg): -38

NCCCC[C@H](NC(=O)OC1CCCC1)C(=O)N[C@H](CCC(=O)N1[C@H](C(=O)O)C[C@@H]2CCCC[C@@H]21)C(=O)O [Example 30, (2S,3aS,7aS)-1-(N^2 -Cyclopentyloxycarbonyl-L-lysyl-gamma-D-glytamyl)octahydro-1H-indole-2-carboxylic acid]
Charge in pressure at 9 hours administration (renal hypertensive rats; dose of 10 mg/kg): -38

NCCCC[C@H](NC(=O)OCCc1ccccn1)C(=O)N[C@H](CCC(=O)N1c2ccccc2C[C@H]1C(=O)O)C(=O)O [Example 38, 1-[N^2-(2-Pyridineethoxycarbonyl)-L-lysyl-gamma-D-glutamyl]indoline-2(S)-carboxylic acid]
Charge in pressure at 9 hours administration (renal hypertensive rats; dose of 10 mg/kg): -27

NCCCC[C@H](NC(=O)c1ccc(O)cc1)C(=O)N[C@H](CCC(=O)N1[C@H](C(=O)O)C[C@@H]2CCCC[C@@H]21)C(=O)O [Example 51, (2S,3aS,7aS)-1-[N^2-(4-Hydroxybenzoyl)-L-lysyl-gamma-D-glutamyl)octahydro-1H-indole-2-carboxylic acid]
oral LD50 (Male STD-ddy strain mice): more than 3,000 mg per kilogram of body weight
IC50 [1]: 5.2 nM

NCCCC[C@H](NC(=O)c1ccc(Cl)cc1)C(=O)N[C@H](CCC(=O)N1[C@H](C(=O)O)C[C@@H]2CCCC[C@@H]21)C(=O)O [Example 55, (2S,3aS,7aS)-1-[N^2-(4-Chlorobenzoyl)-L-lysyl-gamma-D-glutamyl]octahydro-1H-indole-2-carboxylic acid]
IC50 [1]: 6.2 nM

NCCCC[C@H](NC(=O)[C@@H]1Cc2ccccc2N1)C(=O)N[C@H](CCC(=O)N1[C@H](C(=O)O)C[C@@H]2CCCC[C@@H]21)C(=O)O [Example 56, (2S,3aS,7aS)-1-[N^2-(Indoline-2(S)-carbonyl)-L-lysyl-gamma-D-glutamyl]octahydro-1H-indole-2-carboxylic acid]
IC50 [1]: 8.2 nM

NCCCC[C@H](NC(=O)c1cnccn1)C(=O)N[C@H](CCC(=O)N1c2ccccc2C[C@H]1C(=O)O)C(=O)O [Example 68, 1-(N^2 -Pyrazinoyl-L-lysyl-gamma-D-glutamyl)indoline-2(S)-carboxylic acid]
IC50 [1]: 16 nM

NCCCC[C@H](NC(=O)c1cccnc1)C(=O)N[C@H](CCC(=O)N1[C@H](C(=O)O)C[C@@H]2CCCC[C@@H]21)C(=O)O [Example 69, Monosodium (2S,3aS,7aS)-1-(N^2-nicotinoyl-L-lysyl-gamma-D-glutamyl)octahydro-1H-indole-2-carboxylate] (Nicotinoyl-Lys-[d(γGlu)]-[Oic]-OH)
IC50 [1]: 7.8 nM

COc1ccccc1C(=O)N[C@@H](CCCCN)C(=O)N[C@H](CCC(=O)N1[C@H](C(=O)O)C[C@@H]2CCCC[C@@H]21)C(=O)O [Example 70, (2S,3aS,7aS)-1-[N^2-(2-Methoxybenzoyl)-L-lysyl-gamma-D-glutamyl]octahydro-1H-indole-2-carboxylic acid]
IC50 [1]: 5.4 nM

NCCCC[C@H](NC(=O)C1CCCCC1)C(=O)N[C@H](CCC(=O)N1c2ccccc2C[C@H]1C(=O)O)C(=O)O [Example 71, 1-(N^2 -Cyclohexylcarbonyl-L-lysyl-gamma-D-glutamyl)indoline-2(S)-carboxylic acid]
IC50 [1]: 27 nM

NCCCC[C@H](NC(=O)OCc1ccc2c(c1)OCO2)C(=O)N[C@H](CCC(=O)N1c2ccccc2C[C@H]1C(=O)O)C(=O)O [Example 74, 1-[N^2-(3,4-Methylenedioxybenzyloxycarbonyl)-L-lysyl-gamma-D-glutamyl]indoline-2(S)-carboxylic acid]
IC50 [1]: 6.6 nM

NCCC[S+]([O-])C[C@H](NC(=O)OCc1ccccc1)C(=O)N[C@H](CCC(=O)N1[C@H](C(=O)O)C[C@@H]2CCCC[C@@H]21)C(=O)O (stereo partly drawn) [Example 76, (2S,3aS,7aS)-1-[N-Benzyloxycarbonyl-S-(3-aminopropyl)-L-cysteinyl-gamma-D-glutamyl]octahydro-1H-indole-2-carboxylic acid sulfoxide]
Charge in pressure at 9 hours administration (renal hypertensive rats; dose of 10 mg/kg): -31
